Measured values taken from ChEMBL document CHEMBL1201862, “PubChem BioAssay data set” (2004).
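Where inhibition never reached the appropriate level, the endpoint shown equals the highest concentration tested. Otherwise, values were interpolated linearly from a five-concentration, 48-hour dose response in 96-well plates. GI50: concentration for 50% inhibition of growth.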 Active and inactive are the calls of the source. No stated cut-off is given here; in the data, active = GI50 up to about 1.1 µM and inactive = higher.

How the values were obtained:
Assay in all cases: NCI anticancer screen, dose series, 48 h
DLD-1 = system: DLD-1
HCC 2998 = system: HCC 2998
OVCAR-3 = system: OVCAR-3
SNB-75 = system: SNB-75
SNB-78 = system: SNB-78
SNB-19 = system: SNB-19
XF498 = system: XF498
HL-60 = system: HL-60
NCI-H460 = system: NCI-H460
OVCAR-5 = system: OVCAR-5
RXF 393 = system: RXF 393
CCRF-CEM = system: CCRF-CEM
SK-OV-3 = system: SK-OV-3
HOP-18 = system: HOP-18
SF-295 = system: SF-295
OVCAR-4 = system: OVCAR-4
NCI-H23 = system: NCI-H23
HCT-116 = system: HCT-116
DMS-114 = system: DMS-114
SW-620 = system: SW-620
HOP-62 = system: HOP-62
OVCAR-8 = system: OVCAR-8
UACC-257 = system: UACC-257
A549 = system: A549
HCT-15 = system: HCT-15
HT-29 = system: HT-29
SK-MEL-5 = system: SK-MEL-5
M14 = system: M14
SK-MEL-28 = system: SK-MEL-28
Malme-3M = system: Malme-3M
A498 = system: A498
NCI-H226 = system: NCI-H226
RXF 631 = system: RXF 631
MOLT-4 = system: MOLT-4
LOX IMVI = system: LOX IMVI
SF-539 = system: SF-539
KM-20L2 = system: KM-20L2
UO-31 = system: UO-31
786-0 = system: 786-0
EKVX = system: EKVX
SN12C = system: SN12C
SF-268 = system: SF-268
K562 = system: K562
RPMI-8226 = system: RPMI-8226
M19-MEL = system: M19-MEL
UACC-62 = system: UACC-62
IGROV-1 = system: IGROV-1
KM12 = system: KM12
LXFL 529 = system: LXFL 529
COLO 205 = system: COLO 205
SK-MEL-2 = system: SK-MEL-2
HOP-92 = system: HOP-92
NCI-H522 = system: NCI-H522
U-251 = system: U-251
SR = system: SR
ACHN = system: ACHN
TK-10 = system: TK-10
CAKI-1 = system: CAKI-1
DMS-273 = system: DMS-273

Structure (SMILES): C/C(=N\NC(=S)NC(CCC(=O)O)C(=O)O)c1cnccn1 (stereo not drawn)
- GI50 (DLD-1): > 100 µM (inactive)
- GI50 (HCC 2998): > 100 µM (inactive)
- GI50 (OVCAR-3): > 100 µM (inactive)
- GI50 (SNB-75): > 100 µM (inactive)
- GI50 (SNB-78): > 100 µM (inactive)
- GI50 (SNB-19): > 100 µM (inactive)
- GI50 (XF498): > 100 µM (inactive)
- GI50 (HL-60): > 100 µM (inactive)
- GI50 (NCI-H460): > 100 µM (inactive)
- GI50 (OVCAR-5): > 100 µM (inactive)
- GI50 (RXF 393): > 100 µM (inactive)
- GI50 (CCRF-CEM): > 100 µM (inactive)
- GI50 (SK-OV-3): > 100 µM (inactive)
- GI50 (HOP-18): > 100 µM (inactive)
- GI50 (SF-295): > 100 µM (inactive)
- GI50 (OVCAR-4): > 100 µM (inactive)
- GI50 (NCI-H23): > 100 µM (inactive)
- GI50 (HCT-116): > 100 µM (inactive)
- GI50 (DMS-114): > 100 µM (inactive)
- GI50 (SW-620): > 100 µM (inactive)
- GI50 (HOP-62): > 100 µM (inactive)
- GI50 (OVCAR-8): > 100 µM (inactive)
- GI50 (UACC-257): > 100 µM (inactive)
- GI50 (A549): > 100 µM (inactive)
- GI50 (HCT-15): > 100 µM
- GI50 (HT-29): > 100 µM (inactive)
- GI50 (SK-MEL-5): > 100 µM (inactive)
- GI50 (M14): > 100 µM (inactive)
- GI50 (SK-MEL-28): > 100 µM (inactive)
- GI50 (Malme-3M): > 100 µM (inactive)
- GI50 (A498): > 100 µM (inactive)
- GI50 (NCI-H226): > 100 µM (inactive)
- GI50 (RXF 631): > 100 µM (inactive)
- GI50 (MOLT-4): > 100 µM (inactive)
- GI50 (LOX IMVI): > 100 µM (inactive)
- GI50 (SF-539): > 100 µM (inactive)
- GI50 (KM-20L2): > 100 µM (inactive)
- GI50 (UO-31): > 100 µM (inactive)
- GI50 (786-0): > 100 µM (inactive)
- GI50 (EKVX): > 100 µM (inactive)
- GI50 (SN12C): > 100 µM (inactive)
- GI50 (SF-268): > 100 µM (inactive)
- GI50 (K562): > 100 µM (inactive)
- GI50 (RPMI-8226): > 100 µM (inactive)
- GI50 (M19-MEL): > 100 µM (inactive)
- GI50 (UACC-62): > 100 µM (inactive)
- GI50 (IGROV-1): > 100 µM (inactive)
- GI50 (KM12): > 100 µM (inactive)
- GI50 (LXFL 529): > 100 µM (inactive)
- GI50 (COLO 205): > 100 µM (inactive)
- GI50 (SK-MEL-2): > 100 µM (inactive)
- GI50 (HOP-92): > 100 µM (inactive)
- GI50 (NCI-H522): > 100 µM (inactive)
- GI50 (U-251): > 100 µM (inactive)
- GI50 (SR): > 100 µM (inactive)
- GI50 (ACHN): > 100 µM (inactive)
- GI50 (TK-10): > 100 µM (inactive)

Structure (SMILES): O=C1CC[C@H]2CNC(=O)C[C@H]2C1
- GI50 (DLD-1): > 100 µM (inactive)
- GI50 (HCC 2998): > 100 µM (inactive)
- GI50 (OVCAR-3): > 100 µM (inactive)
- GI50 (SNB-75): > 100 µM (inactive)
- GI50 (SNB-78): > 100 µM (inactive)
- GI50 (SNB-19): > 100 µM (inactive)
- GI50 (XF498): > 100 µM (inactive)
- GI50 (HL-60): > 100 µM (inactive)
- GI50 (NCI-H460): > 100 µM (inactive)
- GI50 (RXF 393): > 100 µM (inactive)
- GI50 (CCRF-CEM): > 100 µM (inactive)
- GI50 (SK-OV-3): > 100 µM (inactive)
- GI50 (SF-295): > 100 µM (inactive)
- GI50 (OVCAR-4): > 100 µM (inactive)
- GI50 (NCI-H23): > 100 µM (inactive)
- GI50 (HCT-116): > 100 µM (inactive)
- GI50 (SW-620): > 100 µM (inactive)
- GI50 (HOP-62): > 100 µM (inactive)
- GI50 (OVCAR-8): > 100 µM (inactive)
- GI50 (UACC-257): > 100 µM (inactive)
- GI50 (A549): > 100 µM (inactive)
- GI50 (HCT-15): > 100 µM
- GI50 (HT-29): > 100 µM (inactive)
- GI50 (SK-MEL-5): > 100 µM (inactive)
- GI50 (M14): > 100 µM (inactive)
- GI50 (SK-MEL-28): > 100 µM (inactive)
- GI50 (Malme-3M): > 100 µM (inactive)
- GI50 (A498): > 100 µM (inactive)
- GI50 (RXF 631): > 100 µM (inactive)
- GI50 (MOLT-4): > 100 µM (inactive)
- GI50 (LOX IMVI): > 100 µM (inactive)
- GI50 (CAKI-1): > 100 µM (inactive)
- GI50 (SF-539): > 100 µM (inactive)
- GI50 (UO-31): > 100 µM (inactive)
- GI50 (786-0): > 100 µM (inactive)
- GI50 (EKVX): > 100 µM (inactive)
- GI50 (SN12C): > 100 µM (inactive)
- GI50 (SF-268): > 100 µM (inactive)
- GI50 (K562): > 100 µM (inactive)
- GI50 (DMS-273): > 100 µM (inactive)
- GI50 (RPMI-8226): > 100 µM (inactive)
- GI50 (M19-MEL): > 100 µM (inactive)
- GI50 (UACC-62): > 100 µM (inactive)
- GI50 (IGROV-1): > 100 µM (inactive)
- GI50 (KM12): > 100 µM (inactive)
- GI50 (LXFL 529): > 100 µM (inactive)
- GI50 (COLO 205): > 100 µM (inactive)
- GI50 (SK-MEL-2): > 100 µM (inactive)
- GI50 (HOP-92): > 100 µM (inactive)
- GI50 (NCI-H522): > 100 µM (inactive)
- GI50 (U-251): > 100 µM (inactive)
- GI50 (TK-10): > 100 µM (inactive)

Structure (SMILES): C=CCN(N=O)C(=O)N(CCCCC(NC(C)=O)C(=O)NCc1ccccc1)Cc1ccccc1 (stereo not drawn)
- GI50 (OVCAR-3): 30.3 µM (inactive)
- GI50 (SNB-75): 38.4 µM (inactive)
- GI50 (SNB-19): 51.5 µM (inactive)
- GI50 (XF498): 36.1 µM (inactive)
- GI50 (HL-60): 19.8 µM (inactive)
- GI50 (NCI-H460): 39.2 µM (inactive)
- GI50 (OVCAR-5): > 100 µM (inactive)
- GI50 (RXF 393): 21.7 µM (inactive)
- GI50 (CCRF-CEM): 28.2 µM (inactive)
- GI50 (SK-OV-3): > 100 µM (inactive)
- GI50 (HOP-18): 23 µM (inactive)
- GI50 (SF-295): 31 µM (inactive)
- GI50 (OVCAR-4): 25.9 µM (inactive)
- GI50 (NCI-H23): 46.5 µM (inactive)
- GI50 (DMS-114): 27.7 µM (inactive)
- GI50 (SW-620): 33.8 µM (inactive)
- GI50 (HOP-62): 57.9 µM (inactive)
- GI50 (OVCAR-8): 35.2 µM (inactive)
- GI50 (UACC-257): 36.1 µM (inactive)
- GI50 (A549): 38.5 µM (inactive)
- GI50 (HCT-15): 39.9 µM
- GI50 (HT-29): 19.5 µM (inactive)
- GI50 (SK-MEL-5): 15.5 µM (inactive)
- GI50 (M14): 22.6 µM (inactive)
- GI50 (SK-MEL-28): 44.1 µM (inactive)
- GI50 (Malme-3M): 20.2 µM (inactive)
- GI50 (A498): 42.9 µM (inactive)
- GI50 (NCI-H226): 25.4 µM (inactive)
- GI50 (RXF 631): 32.5 µM (inactive)
- GI50 (MOLT-4): 13.8 µM (inactive)
- GI50 (LOX IMVI): 21.7 µM (inactive)
- GI50 (CAKI-1): 28.6 µM (inactive)
- GI50 (SF-539): 38.1 µM (inactive)
- GI50 (KM-20L2): 18.9 µM (inactive)
- GI50 (UO-31): 29.6 µM (inactive)
- GI50 (786-0): 28.6 µM (inactive)
- GI50 (EKVX): 38.1 µM (inactive)
- GI50 (SN12C): 41.5 µM (inactive)
- GI50 (SF-268): 41.9 µM (inactive)
- GI50 (K562): 26.9 µM (inactive)
- GI50 (DMS-273): 41.1 µM (inactive)
- GI50 (RPMI-8226): 16.1 µM (inactive)
- GI50 (M19-MEL): 35.2 µM (inactive)
- GI50 (UACC-62): 34.6 µM (inactive)
- GI50 (IGROV-1): > 100 µM (inactive)
- GI50 (KM12): 31.6 µM (inactive)
- GI50 (LXFL 529): 31.1 µM (inactive)
- GI50 (COLO 205): 23.8 µM (inactive)
- GI50 (SK-MEL-2): 37.1 µM (inactive)
- GI50 (HOP-92): 13.1 µM (inactive)
- GI50 (NCI-H522): 15.1 µM (inactive)
- GI50 (U-251): 42.5 µM (inactive)
- GI50 (ACHN): 42.9 µM (inactive)
- GI50 (TK-10): 35.1 µM (inactive)
